One compound from patent publication US10544089B2, “Innovative preparation and crystallization of iosimenol” (OTSUKA PHARMACEUTICAL CO., LTD., priority 2015, dated 2020) can be followed below.

Data set [1] is described as follows: Heat stability of iosimenol in crystallization solution (colour change, impurities). The settings on record: between 80-110° C. The data set is classed as physicochemical. An excerpt:
Although contrast media are relatively stable compounds, usually after a long-term exposure to heat, certain degradation may occur. The most vulnerable are amide groups and covalently bound iodine. In case of iosimenol, the acidic hydrogens on aliphatic carbon of malonyl group may cause cleavage of the bridge at higher temperature and can lead to form monomeric impurities. These all mentioned degradations are more intensive under strong acidic or strong basic conditions. Using our experience in formulation of iosimenol, we used trometamol as a buffer to control pH between 6-7 from the viewpoint of influencing of color. Ideal conditions for iosimenol crystallization are when the crystallization is performed at shortest process time at lowest possible temperature under suitable and controlled pH between 6-7 by buffer from the viewpoint of influencing of color.
Therefore, ideal conditions for crystallization are temperatures between 80-110° C., pH 6-7 and as short as possible time for crystallization.

Data set [2] can be described thus: Solubility of iosimenol in organic solvents (crystallization attempts). The class given is physicochemical. The text has this:
The present inventors applied crystallization methods described in literature, but this approach always failed, independently on using crude or purified iosimenol. If any solid was obtained, we usually obtained solid of gummy consistency and we never observed any purity increase.

Regarding `NC(=O)c1c(I)c(C(=O)NCC(O)CO)c(I)c(N(CC(O)CO)C(=O)CC(=O)N(CC(O)CO)c2c(I)c(C(N)=O)c(I)c(C(=O)NCC(O)CO)c2I)c1I` (stereo not drawn) [iosimenol, N,N′-bis[3-carbamoyl-5-(2,3-dihydroxypropyl-carbamoyl)-2,4,6-triiodophenyl]-N,N′-bis(2,3-dihydroxypropyl)-malonamide], the “degradation on heating (impurities)” value in data set [1] is reported as “no new impurities or increased level of known impurities are observed”. The solubility in solvents entry in data set [2] (alcohols, ethers and alkoxyalcohols) is on record as “practically insoluble”. For the same compound, the “solubility in aprotic solvents” value in data set [2] (aprotic solvents like dimethylformamide) is recorded as “extremely high solubility”.
